The source of these data is the supplement of paper PMC11208160.

A short description of the data set: recombinant UMI read abundance after kanamycin selection (control-corrected) (log10(CPM+1)); higher = more efficient recombination; extreme values may be limits of the assay; sequences stand for … in AGTGCAGAGAAAATCGGCCAGTTTTCTCTGCCTGCAGTCCGCATGCCGTGGGACCCCTTGGGTTCTAACCTGTTGCCTAGATTTATGCAGCGGACTGCCTTTCTCCCAAAGTGATAAACCGG…AGGTTGGTTTCACT; site = the 11-nt donor. The method, boiled down:
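In a pooled Escherichia coli screen for the IS621 bridge recombinase, donor and donor-binding-loop pairs were each placed with a 12-nt UMI on a plasmid bearing a promoterless kanamycin gene. This library was co-electroporated with a target plasmid encoding a fixed target and T7-inducible recombinase, and cells were plated either on IPTG (0.07 mM) plus kanamycin or without selection, in two replicates each. Recombinant UMIs were PCR-amplified across the donor–target junction and sequenced, and counts were converted to CPM, averaged over replicates, scaled by control-derived factors and reported as log10(CPM+1).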
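Further: IS621 bridge recombinase in Escherichia coli cells against a fixed T5 target plasmid.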

As for “CCCCATACATGGACCGGTTTTCCCGGTAATCCGTATTTGTA (site CCCCACACTTA)”, the “recombinant UMI read abundance (log10)” value is 0.0183.

For “CCCCATACATGGACCGGTTTTCCCGGTAATCCGTATTTGTA (site CCCCAGACTTA)”, the “recombinant UMI read abundance (log10)” value turned out to be 0.

In the case of “CCCCATACATGGACCGGTTTTCCCGGTAATCCGTATTTGTA (site CCCCATACTTA)”, the “recombinant UMI read abundance (log10)” value was 0.512.

Take “CCCCGTCCATGGACCGGTTTTCCCGGTAATCCGTATTTGCA (site CCCAGTCCTTG)”: the “recombinant UMI read abundance (log10)” value was 0.

Turning to “CCCCGTCCATGGACCGGTTTTCCCGGTAATCCGTATTTGCA (site CCCCGTCCTTG)”, the “recombinant UMI read abundance (log10)” value is 0.809.

As to “CCCCGTCCATGGACCGGTTTTCCCGGTAATCCGTATTTGCA (site CCCGGTCCTTG)”, the “recombinant UMI read abundance (log10)” value turned out to be 0.0123.

As for “CCCCGTCCATGGACCGGTTTTCCCGGTAATCCGTATTTGCA (site CCCTGTCCTTG)”, the “recombinant UMI read abundance (log10)” value turned out to be 0.00689.

Consider “CCCCTCCCATGGACCGGTTTTCCCGGTAATCCGTATTTGCG (site CCCCTCCCTCG)”, for which the “recombinant UMI read abundance (log10)” value was 0.014.

As to “CCCGACACATGGACCGGTTTTCCCGGTAATCCGTATTTGTA (site CCCAACACTTA)”, the “recombinant UMI read abundance (log10)” value was 0.221.

Consider “CCCGACACATGGACCGGTTTTCCCGGTAATCCGTATTTGTA (site CCCCACACTTA)”, for which the “recombinant UMI read abundance (log10)” value turned out to be 0.00237.

With “CCCGACACATGGACCGGTTTTCCCGGTAATCCGTATTTGTA (site CCCGACACTTA)”, the “recombinant UMI read abundance (log10)” value was determined as 0.974.

As to “CCCGACACATGGACCGGTTTTCCCGGTAATCCGTATTTGTA (site CCCTACACTTA)”, the “recombinant UMI read abundance (log10)” value worked out at 0.0106.

On to “CCCGCGTCATGGACCGGTTTTCCCGGTAATCCGTATTTGTC (site CCCGCGTCTGA)”, for which the “recombinant UMI read abundance (log10)” value is 0.515.

As for “CCCGGTACATGGACCGGTTTTCCCGGTAATCCGTATTTGCA (site CCCGGTACTTG)”, the “recombinant UMI read abundance (log10)” value came out at 0.751.

“CCCGGTACATGGACCGGTTTTCCCGGTAATCCGTATTTGCA (site CCCGGTCCTTG)”: the “recombinant UMI read abundance (log10)” value is 0.

With “CCCGGTACATGGACCGGTTTTCCCGGTAATCCGTATTTGCA (site CCCGGTGCTTG)”, the “recombinant UMI read abundance (log10)” value stood at 0.

For the sequence “CCCGGTACATGGACCGGTTTTCCCGGTAATCCGTATTTGCA (site CCCGGTTCTTG)”, the “recombinant UMI read abundance (log10)” value is 0.

In the case of “CCCGGTGCATGGACCGGTTTTCCCGGTAATCCGTATTTGAT (site CCAGGTGCTAT)”, the “recombinant UMI read abundance (log10)” value amounted to 0.119.

As for “CCCGGTGCATGGACCGGTTTTCCCGGTAATCCGTATTTGAT (site CCCGGTGCTAT)”, the “recombinant UMI read abundance (log10)” value was determined as 0.907.

Consider “CCCGGTGCATGGACCGGTTTTCCCGGTAATCCGTATTTGAT (site CCGGGTGCTAT)”, for which the “recombinant UMI read abundance (log10)” value is 0.0111.

Regarding “CCCGGTGCATGGACCGGTTTTCCCGGTAATCCGTATTTGAT (site CCTGGTGCTAT)”, the “recombinant UMI read abundance (log10)” value was 0.00284.

Take “CCCGGTGCATGGACCGGTTTTCCCGGTAATCCGTATTTGCA (site CCCGGTACTTG)”: the “recombinant UMI read abundance (log10)” value came to 0.

As to “CCCGGTGCATGGACCGGTTTTCCCGGTAATCCGTATTTGCA (site CCCGGTCCTTG)”, the “recombinant UMI read abundance (log10)” value turned out to be 0.0126.

As for “CCCGGTGCATGGACCGGTTTTCCCGGTAATCCGTATTTGCA (site CCCGGTGCTTG)”, the “recombinant UMI read abundance (log10)” value was determined as 0.

Take “CCCGGTGCATGGACCGGTTTTCCCGGTAATCCGTATTTGCA (site CCCGGTTCTTG)”: the “recombinant UMI read abundance (log10)” value is 0.

Consider “CCCGTATCATGGACCGGTTTTCCCGGTAATCCGTATTTGTC (site CCCATATCTGA)”, for which the “recombinant UMI read abundance (log10)” value is 0.605.

With “CCCGTATCATGGACCGGTTTTCCCGGTAATCCGTATTTGTC (site CCCCTATCTGA)”, the “recombinant UMI read abundance (log10)” value was 0.0235.

Regarding “CCCGTATCATGGACCGGTTTTCCCGGTAATCCGTATTTGTC (site CCCGTATCTGA)”, the “recombinant UMI read abundance (log10)” value is 1.83.

As for “CCCGTATCATGGACCGGTTTTCCCGGTAATCCGTATTTGTC (site CCCTTATCTGA)”, the “recombinant UMI read abundance (log10)” value was 0.

For “CCCGTCCCATGGACCGGTTTTCCCGGTAATCCGTATTTGGA (site CCCGTCCCTTC)”, the “recombinant UMI read abundance (log10)” value came to 0.00421.

Take “CCCGTGACATGGACCGGTTTTCCCGGTAATCCGTATTTGAT (site CCCGTGACTAT)”: the “recombinant UMI read abundance (log10)” value is 1.05.

Consider “CCCGTTCCATGGACCGGTTTTCCCGGTAATCCGTATTTGGC (site CCCGTTCCTGC)”, for which the “recombinant UMI read abundance (log10)” value was 0.

For “CCCGTTTCATGGACCGGTTTTCCCGGTAATCCGTATTTGAG (site CCCGTTTCTCT)”, the “recombinant UMI read abundance (log10)” value is 0.807.

Take “CCCTACCCATGGACCGGTTTTCCCGGTAATCCGTATTTGCC (site CCCTAACCTGG)”: the “recombinant UMI read abundance (log10)” value was 0.

With “CCCTACCCATGGACCGGTTTTCCCGGTAATCCGTATTTGCC (site CCCTACCCTGG)”, the “recombinant UMI read abundance (log10)” value was 0.541.

For the sequence “CCCTACCCATGGACCGGTTTTCCCGGTAATCCGTATTTGCC (site CCCTAGCCTGG)”, the “recombinant UMI read abundance (log10)” value turned out to be 0.

As to “CCCTACCCATGGACCGGTTTTCCCGGTAATCCGTATTTGCC (site CCCTATCCTGG)”, the “recombinant UMI read abundance (log10)” value stood at 0.

“CCCTAGACATGGACCGGTTTTCCCGGTAATCCGTATTTGGG (site ACCTAGACTCC)”: the “recombinant UMI read abundance (log10)” value was 0.036.

For “CCCTAGACATGGACCGGTTTTCCCGGTAATCCGTATTTGGG (site CCCTAGACTCC)”, the “recombinant UMI read abundance (log10)” value is 0.546.

Take “CCCTAGACATGGACCGGTTTTCCCGGTAATCCGTATTTGGG (site GCCTAGACTCC)”: the “recombinant UMI read abundance (log10)” value came out at 0.0233.

Consider “CCCTAGACATGGACCGGTTTTCCCGGTAATCCGTATTTGGG (site TCCTAGACTCC)”, for which the “recombinant UMI read abundance (log10)” value was 0.0148.

Take “CCCTAGCCATGGACCGGTTTTCCCGGTAATCCGTATTTGCC (site ACCTAGCCTGG)”: the “recombinant UMI read abundance (log10)” value stood at 0.

Take “CCCTAGCCATGGACCGGTTTTCCCGGTAATCCGTATTTGCC (site CACTAGCCTGG)”: the “recombinant UMI read abundance (log10)” value is 0.

For “CCCTAGCCATGGACCGGTTTTCCCGGTAATCCGTATTTGCC (site CCATAGCCTGG)”, the “recombinant UMI read abundance (log10)” value was found to be 0.

Consider “CCCTAGCCATGGACCGGTTTTCCCGGTAATCCGTATTTGCC (site CCCAAGCCTGG)”, for which the “recombinant UMI read abundance (log10)” value came out at 0.

Consider “CCCTAGCCATGGACCGGTTTTCCCGGTAATCCGTATTTGCC (site CCCCAGCCTGG)”, for which the “recombinant UMI read abundance (log10)” value came to 0.

With “CCCTAGCCATGGACCGGTTTTCCCGGTAATCCGTATTTGCC (site CCCGAGCCTGG)”, the “recombinant UMI read abundance (log10)” value worked out at 0.

As to “CCCTAGCCATGGACCGGTTTTCCCGGTAATCCGTATTTGCC (site CCCTAACCTGG)”, the “recombinant UMI read abundance (log10)” value came to 0.

Turning to “CCCTAGCCATGGACCGGTTTTCCCGGTAATCCGTATTTGCC (site CCCTACCCTGG)”, the “recombinant UMI read abundance (log10)” value amounted to 0.

Regarding “CCCTAGCCATGGACCGGTTTTCCCGGTAATCCGTATTTGCC (site CCCTAGACTGG)”, the “recombinant UMI read abundance (log10)” value came to 0.

Regarding “CCCTAGCCATGGACCGGTTTTCCCGGTAATCCGTATTTGCC (site CCCTAGCCTAG)”, the “recombinant UMI read abundance (log10)” value is 0.00741.

With “CCCTAGCCATGGACCGGTTTTCCCGGTAATCCGTATTTGCC (site CCCTAGCCTCG)”, the “recombinant UMI read abundance (log10)” value was determined as 0.00555.

“CCCTAGCCATGGACCGGTTTTCCCGGTAATCCGTATTTGCC (site CCCTAGCCTGA)”: the “recombinant UMI read abundance (log10)” value was 0.

“CCCTAGCCATGGACCGGTTTTCCCGGTAATCCGTATTTGCC (site CCCTAGCCTGC)”: the “recombinant UMI read abundance (log10)” value turned out to be 0.

Turning to “CCCTAGCCATGGACCGGTTTTCCCGGTAATCCGTATTTGCC (site CCCTAGCCTGG)”, the “recombinant UMI read abundance (log10)” value is 0.

With “CCCTAGCCATGGACCGGTTTTCCCGGTAATCCGTATTTGCC (site CCCTAGCCTGT)”, the “recombinant UMI read abundance (log10)” value came out at 0.

Take “CCCTAGCCATGGACCGGTTTTCCCGGTAATCCGTATTTGCC (site CCCTAGCCTTG)”: the “recombinant UMI read abundance (log10)” value came out at 0.00543.

As to “CCCTAGCCATGGACCGGTTTTCCCGGTAATCCGTATTTGCC (site CCCTAGGCTGG)”, the “recombinant UMI read abundance (log10)” value was 0.

In the case of “CCCTAGCCATGGACCGGTTTTCCCGGTAATCCGTATTTGCC (site CCCTAGTCTGG)”, the “recombinant UMI read abundance (log10)” value worked out at 1.15.

As to “CCCTAGCCATGGACCGGTTTTCCCGGTAATCCGTATTTGCC (site CCCTATCCTGG)”, the “recombinant UMI read abundance (log10)” value came to 0.

As to “CCCTAGCCATGGACCGGTTTTCCCGGTAATCCGTATTTGCC (site CCCTCGCCTGG)”, the “recombinant UMI read abundance (log10)” value came to 0.

Take “CCCTAGCCATGGACCGGTTTTCCCGGTAATCCGTATTTGCC (site CCCTGGCCTGG)”: the “recombinant UMI read abundance (log10)” value was determined as 0.

As to “CCCTAGCCATGGACCGGTTTTCCCGGTAATCCGTATTTGCC (site CCCTTGCCTGG)”, the “recombinant UMI read abundance (log10)” value came to 0.

As to “CCCTAGCCATGGACCGGTTTTCCCGGTAATCCGTATTTGCC (site CCGTAGCCTGG)”, the “recombinant UMI read abundance (log10)” value was determined as 0.

As for “CCCTAGCCATGGACCGGTTTTCCCGGTAATCCGTATTTGCC (site CCTTAGCCTGG)”, the “recombinant UMI read abundance (log10)” value was 0.

Regarding “CCCTAGCCATGGACCGGTTTTCCCGGTAATCCGTATTTGCC (site CGCTAGCCTGG)”, the “recombinant UMI read abundance (log10)” value amounted to 0.

For the sequence “CCCTAGCCATGGACCGGTTTTCCCGGTAATCCGTATTTGCC (site CTCTAGCCTGG)”, the “recombinant UMI read abundance (log10)” value turned out to be 0.

Consider “CCCTAGCCATGGACCGGTTTTCCCGGTAATCCGTATTTGCC (site GCCTAGCCTGG)”, for which the “recombinant UMI read abundance (log10)” value came to 0.
